Test results published in patent US11970450B2, “Multi-component crystals of an orally available HIF prolyl hydroxylase inhibitor” (Sandoz AG, priority 2018, dated 2024).
Read-outs that look alike come from different tables or passages of the source.

How the values were obtained:
[1] = Thermogravimetric analysis (TGA) mass loss on heating; assay type: physicochemical; conditions: 10 K/min
Description: TGA was performed on a Mettler TGA/DSC 1 instrument. The samples (9.53 mg Form 1 and 8.16 mg Form 2, 8.12 mg 1,4-dioxane solvate) were heated in a 100 microliter aluminum pan closed with an aluminum lid. The lid was automatically pierced at the beginning of the measurement. The samples were heated from 25 to 250° C. at a rate of 10 K/min. Nitrogen (purge rate 50 mL/min) was used as purge gas.
Also, no significant mass loss is visible in the TGA curves of Form 1 and Form 2 until they melt.

[2] = Thermal stability by differential scanning calorimetry (DSC); assay type: physicochemical; conditions: for Thermal stability: Table 7 summary, temperature stress, DSC and TGA; for Thermal stability / DSC: thermal events / phase transformations before melting: 25 to 250° C. at 10 K/min; for DSC: thermal events / phase transformations before melting: nitrogen purge; for Physically stable toward temperature stress: no thermal events in DSC until start to melt at: DSC 10 K/min
Description: DSC was performed on a Mettler Polymer DSC R instrument. […] Nitrogen (purge rate 50 mL/min) was used as purge gas.

[3] = cited from earlier work
[4] = up to a temperature of about 170° C.

For C1COCCO1.O=C(O)CNC(=O)c1ncc(-c2cccc(Cl)c2)cc1O [Vadadustat 1,4-dioxane solvate, reference compound], the “Temperature at which TGA mass loss starts” value [1] was “about 40 °C”, the TGA mass loss [1, 4] was “about 19 weight %” and the “DSC onset of first broad endothermic peak (release of 1,4-dioxane from the crystal structure)” value ([2]; 10 K/min) was “about 78 °C”. For the same compound, the Thermal stability [2] was “desolvation below 100 °C”.
In the case of O=C(O)CNC(=O)c1ncc(-c2cccc(Cl)c2)cc1O [Vadadustat L-proline form 1, vadadustat L-proline], the TGA mass loss [1, 4] is reported as “about 0.20 weight %”, the “DSC: thermal events / phase transformations before melting” value ([2]; listed as vadadustat L-proline form 1) is reported as “undergoes no desolvation or phase transformations but is stable until it melts” and the “Physically stable toward temperature stress: no thermal events in DSC until start to melt at” value ([2]; listed as Form 1) is reported as “about 170 °C”. The Thermal stability [2] was “physically stable until melting at”.
For O=C(O)CNC(=O)c1ncc(-c2cccc(Cl)c2)cc1O [Vadadustat L-proline form 2, vadadustat L-proline], the TGA mass loss ([1]; up to a temperature of about 180° C.) was “about 0.15 weight %”, the “DSC: thermal events / phase transformations before melting” value ([2]; listed as vadadustat L-proline form 2) was “undergoes no phase transformations but is stable until it melts” and the “Physically stable toward temperature stress: no thermal events in DSC until start to melt at” value ([2]; listed as Form 2) was about 178 °C.
In the case of O=C(O)CNC(=O)c1ncc(-c2cccc(Cl)c2)cc1O [Vadadustat hydrate], the Thermal stability ([3]; Table 7 summary, hydrate of WO 2018/108101 A1, temperature stress) is listed as “dehydration below 100 °C” and the “Physical stability upon temperature stress” value ([3]; background statement on hydrate CS2 of WO 2018/108101 A1) is listed as “physically unstable upon temperature stress”.
